Laboratory results as given in patent US20190307843A1, “SINGLE DOSE METHODS FOR PREVENTING AND TREATING FUNGAL INFECTIONS” (Cidara Therapeutics, Inc., priority 2016, published 2019).
“And” between values parts separate entries of the source, which are not always exact repeats. Equal values may be shown once. Starred links: 1 amine or outer side, 2 acyl side, 3 side chain; linkers in the order of their positions; H or OH if unused. Positions of bridges follow the written chain, without caps; N, C: chain ends. Non-standard residues stand in square brackets, D forms with d. Residues, ends and D or L forms follow the SMILES beside them. *: point of attachment. hTyr(3S-OH,4S-OH,3'-OSO3H) = N[C@H](C(=O)O)[C@H](O)[C@@H](O)c1ccc(O)c(OS(=O)(=O)O)c1; Orn(4R-OH,5R-OH) = O=C([C@H](C[C@@H](O)[C@@H](O)N[*:3])N[*:1])[*:2]; Pro(3S-OH,4S-Me) = C[C@H]1CN[C@H](C(=O)O)[C@H]1O; X1 = CCCCCOc1ccc(-c2cc(-c3ccc(C(=O)*)cc3)no2)cc1; Gln(3R-OH) = NC(=O)C[C@@H](O)[C@H](N)C(=O)O; Hyp = O=C(O)[C@@H]1C[C@@H](O)CN1

Tests used:
[1] = system: C. albicans SC-5314 biofilms; test: Adhesion phase biofilms (prevention), XTT metabolic activity and CSLM; type: cell-based, Candida albicans
C. albicans strain 529L = test: Rat model of vulvovaginal candidiasis, vaginal lavage and tissue burden; type: in vivo, Candida albicans
[2] = type: in vivo, rat; conditions: rat, in vivo
Description: The rats were monitored at a frequency appropriate for their clinical condition. Rat weights were recorded at least once daily to ensure animals remained within ethical limits.

A. fumigatus AF293 [3] = test: Murine model of pulmonary aspergillosis (Example 19), terminal lung burden; type: in vivo, Aspergillus fumigatus; conditions: Micafungin 5 mg/kg IP Day −1
Description: A secondary endpoint for the study was terminal lung tissue burden. Immediately following confirmation of death, carcasses were frozen at −20° C. prior to tissue dissection and processing. The frozen carcasses were thawed at room temperature, the lungs removed and placed into pre-weighed bead-beating tubes containing 2 mL of PBS and subjected to mechanical disruption. Organ homogenates were diluted further in PBS and quantitatively cultured for A. fumigatus onto SABC and incubated at 30° C. for 24-48 hours.
2. Lung tissue burden data were analysed using the non-parametric Kruskal-Wallis test and if this was statistically significant all pairwise comparisons were analyzed (Conover-Inman).

[4] = system: A. fumigatus strain AF293; test: Murine model of pulmonary aspergillosis (Example 13), survival
A. fumigatus AF293 [5] = test: Murine model of pulmonary aspergillosis (Example 19), survival
Candida albicans SC5314 = conditions: 24 hr
[6] = 20 mg/kg PO Dosed Once, lavage Day 1 post infection, pre-treatment
[7] = 20 mg/kg PO Dosed Once, lavage Day 2 post infection
[8] = 20 mg/kg PO Dosed Once, lavage Day 3 post infection
[9] = 20 mg/kg PO Dosed Once, lavage Day 5 post infection
[10] = 20 mg/kg PO Dosed Once, lavage Day 7 post infection
[11] = 20 mg/kg PO Dosed Once, lavage Day 9 post infection
[12] = 20 mg/kg PO Dosed Once, terminal vaginal tissue Day +9 post infection
[13] = 20 mg/kg PO Dosed Twice, lavage Day 1 post infection, pre-treatment
[14] = 20 mg/kg PO Dosed Twice, lavage Day 2 post infection
[15] = 20 mg/kg PO Dosed Twice, lavage Day 3 post infection
[16] = 20 mg/kg PO Dosed Twice, lavage Day 5 post infection
[17] = 20 mg/kg PO Dosed Twice, lavage Day 7 post infection
[18] = 20 mg/kg PO Dosed Twice, lavage Day 9 post infection
[19] = 20 mg/kg PO Dosed Twice, terminal vaginal tissue Day +9 post infection
[20] = Micafungin 5 mg/kg IP once, Day 1 pre-infection

OC(Cn1cncn1)(Cn1cncn1)c1ccc(F)cc1F [fluconazole]
thickness of biofilms ([1]; fluconazole): no effect on biofilm thickness | biofilm formation by metabolic activity (XTT) ([1]; fluconazole 1 and 4 μg/ml, 24 h): did not inhibit biofilm formation | Group Geometric mean (C. albicans strain 529L; [6]): 3.16 × 10^3 CFU/mL | Log Group Geometric mean (C. albicans strain 529L; [6]): 3.50 CFU/mL | Log reduction from vehicle control (C. albicans strain 529L; [6]): −1.06 CFU/mL | Group Geometric mean (C. albicans strain 529L; [7]): 1.50 × 10^2 CFU/mL | Log Group Geometric mean (C. albicans strain 529L; [7]): 2.18 CFU/mL | Log reduction from vehicle control (C. albicans strain 529L; [7]): 1.52 CFU/mL | Group Geometric mean (C. albicans strain 529L; [8]): 1.00 CFU/mL | Log Group Geometric mean (C. albicans strain 529L; [8]): 0.00 CFU/mL | Log reduction from vehicle control (C. albicans strain 529L; [8]): 3.57 CFU/mL | Group Geometric mean (C. albicans strain 529L; [9]): 1.00 CFU/mL | Log Group Geometric mean (C. albicans strain 529L; [9]): 0.00 CFU/mL | Log reduction from vehicle control (C. albicans strain 529L; [9]): 4.22 CFU/mL | Group Geometric mean (C. albicans strain 529L; [10]): 1.00 CFU/mL | Log Group Geometric mean (C. albicans strain 529L; [10]): 0.00 CFU/mL | Log reduction from vehicle control (C. albicans strain 529L; [10]): 4.18 CFU/mL | Group Geometric mean (C. albicans strain 529L; [11]): 1.00 CFU/mL | Log Group Geometric mean (C. albicans strain 529L; [11]): 0.00 CFU/mL | Log reduction from vehicle control (C. albicans strain 529L; [11]): 4.30 CFU/mL | Group Geometric mean (C. albicans strain 529L; [12]): 1.00 CFU/g | Log Group Geometric mean (C. albicans strain 529L; [12]): 0.00 CFU/g | Log reduction from vehicle control (C. albicans strain 529L; [12]): 5.49 CFU/g | Group Geometric mean (C. albicans strain 529L; [13]): 1.04 × 10^3 CFU/mL | Log Group Geometric mean (C. albicans strain 529L; [13]): 3.02 CFU/mL | Log reduction from vehicle control (C. albicans strain 529L; [13]): −0.58 CFU/mL | Group Geometric mean (C. albicans strain 529L; [14]): 1.27 × 10^2 CFU/mL | Log Group Geometric mean (C. albicans strain 529L; [14]): 2.10 CFU/mL | Log reduction from vehicle control (C. albicans strain 529L; [14]): 1.59 CFU/mL | Group Geometric mean (C. albicans strain 529L; [15]): 1.49 CFU/mL | Log Group Geometric mean (C. albicans strain 529L; [15]): 0.17 CFU/mL | Log reduction from vehicle control (C. albicans strain 529L; [15]): 3.40 CFU/mL | Group Geometric mean (C. albicans strain 529L; [16]): 1.00 CFU/mL | Log Group Geometric mean (C. albicans strain 529L; [16]): 0.00 CFU/mL | Log reduction from vehicle control (C. albicans strain 529L; [16]): 4.22 CFU/mL | Group Geometric mean (C. albicans strain 529L; [17]): 1.00 CFU/mL | Log Group Geometric mean (C. albicans strain 529L; [17]): 0.00 CFU/mL | Log reduction from vehicle control (C. albicans strain 529L; [17]): 4.18 CFU/mL | Group Geometric mean (C. albicans strain 529L; [18]): 1.00 CFU/mL | Log Group Geometric mean (C. albicans strain 529L; [18]): 0.00 CFU/mL | Log reduction from vehicle control (C. albicans strain 529L; [18]): 4.30 CFU/mL | Group Geometric mean (C. albicans strain 529L; [19]): 1.00 CFU/g | Log Group Geometric mean (C. albicans strain 529L; [19]): 0.00 CFU/g | Log reduction from vehicle control (C. albicans strain 529L; [19]): 5.49 CFU/g | rats having burden below the limit of detection (C. albicans strain 529L; fluconazole 20 mg/kg PO once or twice, lavage Day 3 post infection): 11/12 | reduction in burden (C. albicans strain 529L; fluconazole 20 mg/kg PO, lavage Day 2 post infection): about 1.6 Log10 CFU/mL | lavage burden (C. albicans strain 529L; fluconazole once or twice, all rats, Day 5 post infection): below the limit of detection | terminal vaginal tissue burden (C. albicans strain 529L; fluconazole once or twice, all rats, Day 9): below the limit of detection | tolerability [2]: well tolerated with no adverse events observed

CCCCCOc1ccc(-c2cc(-c3ccc(C(=O)N[C@H]4C[C@@H](O)[C@@H](O)NC(=O)[C@@H]5[C@@H](O)[C@@H](C)CN5C(=O)[C@H]([C@H](O)CC(N)=O)NC(=O)[C@H]([C@H](O)[C@@H](O)c5ccc(O)c(OS(=O)(=O)O)c5)NC(=O)[C@@H]5C[C@@H](O)CN5C(=O)[C@H]([C@@H](C)O)NC4=O)cc3)no2)cc1 [Micafungin, micafungin] (X1-[Orn(4R-OH,5R-OH)]T[Hyp][hTyr(3S-OH,4S-OH,3'-OSO3H)][Gln(3R-OH)][Pro(3S-OH,4S-Me)]; lactam 1-C)
Group Geometric mean (lung burden) (A. fumigatus AF293 [3]): 6.61 × 10^3 CFU/g | Log10 Group Geometric mean (lung burden) (A. fumigatus AF293 [3]): 3.82 CFU/g | Log10 reduction from vehicle control (A. fumigatus AF293 [3]): 0.35 CFU/g | Mean Survival ([4]; Micafungin 2 mg/kg IP Day 0): 75.3 h | Median Survival ([4]; Micafungin 2 mg/kg IP Day 0): 73.3 h | Mean Survival ([4]; Micafungin 2 mg/kg IP Day −1): 64.7 h | Median Survival ([4]; Micafungin 2 mg/kg IP Day −1): 64.7 h | survival time post infection, range (A. fumigatus AF293 [5]; Micafungin 5 mg/kg IP once): 71 to 162 h | Mean Survival (A. fumigatus AF293 [5]; [20]): 92 h and 92.0 h | Median Survival (A. fumigatus AF293 [5]; [20]): 80 h and 80.0 h | survival (A. fumigatus AF293 [5]; micafungin 5 mg/kg once one day pre-infection): did not show any improvement in survival | CFU clearance (Candida albicans SC5314; micafungin IP 10 mg/kg): complete clearance was only observed with the 10 mg/kg dose | CFU reduction (Candida albicans SC5314; micafungin IP 1, 3, 10 mg/kg): good dose response in CFU reduction
